What was measured:
[1] = biological target: Bmx(h) (Homo sapiens, UniProt P51813); assay: biochemical; set-up: in vitro kinase selectivity panel, protein and lipid kinases, single concentration, ATP at Km; conditions: ATP at Km
Outline: (§1)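 Single-point screen against a protein and lipid kinase panel: inhibitor at 1 μM. ATP concentration for every kinase equivalent to its Km.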

[2] = biological target: EGFR(T790M)(h) (Homo sapiens, UniProt P00533, T790M); assay: biochemical; set-up: in vitro kinase selectivity panel, protein and lipid kinases, single concentration, ATP at Km; conditions: ATP at Km
Chain of EGFR(T790M)(h) (P00533 whole entry T790M): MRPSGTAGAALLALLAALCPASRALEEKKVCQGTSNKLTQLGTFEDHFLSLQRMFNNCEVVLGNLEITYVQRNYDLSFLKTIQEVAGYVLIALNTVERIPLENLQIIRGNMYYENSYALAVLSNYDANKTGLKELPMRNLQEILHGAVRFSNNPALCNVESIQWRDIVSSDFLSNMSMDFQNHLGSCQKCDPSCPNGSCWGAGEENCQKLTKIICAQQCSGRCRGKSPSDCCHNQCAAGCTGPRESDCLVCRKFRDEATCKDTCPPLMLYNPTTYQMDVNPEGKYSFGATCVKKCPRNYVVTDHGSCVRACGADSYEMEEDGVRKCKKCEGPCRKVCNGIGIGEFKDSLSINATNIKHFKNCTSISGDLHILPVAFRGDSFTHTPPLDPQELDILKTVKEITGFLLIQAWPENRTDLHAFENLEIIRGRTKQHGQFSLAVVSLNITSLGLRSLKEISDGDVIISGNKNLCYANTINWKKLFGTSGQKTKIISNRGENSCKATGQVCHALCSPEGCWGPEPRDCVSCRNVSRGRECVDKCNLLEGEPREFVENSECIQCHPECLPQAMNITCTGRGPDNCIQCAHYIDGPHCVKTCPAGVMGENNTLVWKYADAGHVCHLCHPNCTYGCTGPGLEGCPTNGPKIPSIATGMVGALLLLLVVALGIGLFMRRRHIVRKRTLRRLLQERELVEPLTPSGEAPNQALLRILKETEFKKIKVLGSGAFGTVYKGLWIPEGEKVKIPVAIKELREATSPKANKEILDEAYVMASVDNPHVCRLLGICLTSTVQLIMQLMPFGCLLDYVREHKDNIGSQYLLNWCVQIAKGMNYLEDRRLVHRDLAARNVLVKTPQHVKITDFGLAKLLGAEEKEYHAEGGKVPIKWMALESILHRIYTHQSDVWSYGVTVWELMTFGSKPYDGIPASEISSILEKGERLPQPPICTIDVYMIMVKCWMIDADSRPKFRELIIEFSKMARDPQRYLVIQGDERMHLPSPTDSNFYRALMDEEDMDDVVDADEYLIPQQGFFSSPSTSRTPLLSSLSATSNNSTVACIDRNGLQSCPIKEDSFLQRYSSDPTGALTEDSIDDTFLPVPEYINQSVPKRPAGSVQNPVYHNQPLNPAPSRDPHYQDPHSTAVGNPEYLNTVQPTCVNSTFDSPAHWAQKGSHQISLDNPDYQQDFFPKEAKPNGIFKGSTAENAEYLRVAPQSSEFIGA
Outline: as §1

Chain of Bmx(h) (P51813 whole entry): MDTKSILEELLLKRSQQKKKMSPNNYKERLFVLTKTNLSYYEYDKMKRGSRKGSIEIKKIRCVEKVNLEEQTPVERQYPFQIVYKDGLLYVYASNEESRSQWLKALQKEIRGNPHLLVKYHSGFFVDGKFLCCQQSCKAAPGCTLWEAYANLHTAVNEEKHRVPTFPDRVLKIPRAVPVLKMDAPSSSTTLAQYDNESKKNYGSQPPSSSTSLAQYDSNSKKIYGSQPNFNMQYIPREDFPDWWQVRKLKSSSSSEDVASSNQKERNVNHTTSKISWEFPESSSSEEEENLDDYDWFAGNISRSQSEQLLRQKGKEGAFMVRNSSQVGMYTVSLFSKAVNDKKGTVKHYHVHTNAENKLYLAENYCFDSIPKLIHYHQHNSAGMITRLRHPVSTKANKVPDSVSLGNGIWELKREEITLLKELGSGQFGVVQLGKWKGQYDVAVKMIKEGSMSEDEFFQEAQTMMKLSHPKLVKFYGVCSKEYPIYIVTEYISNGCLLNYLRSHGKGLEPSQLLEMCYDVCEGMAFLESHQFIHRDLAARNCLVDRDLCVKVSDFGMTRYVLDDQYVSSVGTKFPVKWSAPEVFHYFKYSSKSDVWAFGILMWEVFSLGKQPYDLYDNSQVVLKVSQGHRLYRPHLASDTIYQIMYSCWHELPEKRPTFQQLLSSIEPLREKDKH

In the case of `CC[C@@H](N)CNc1ccnc(-c2cc(-c3cnn(C)c3)ccc2O)n1` [CRT0066101], the inhibition at 1 µM [1] was 26% and the inhibition at 1 µM [2] was -2%.

Reference: publication PMC5391474, “Investigation of the Role of Protein Kinase D in Human Rhinovirus Replication” (Journal of Virology, 2017)
